Data as given in US6737383B1, “Herbicidal oxadiazolidines” (priority 1999, dated 2004).

How the values were obtained:
[1] = tested on: rape; test: Test B pre/postemergence rape; type: in vivo, Brassica napus
In short: (§1)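 Herbicidal effect was estimated by eye on a ten-point control scale after plants spent twelve to sixteen days in a greenhouse following soil or foliar treatment. Foliar sprays targeted plants at one to four leaves; all doses were formulated in a non-phytotoxic solvent with surfactant.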

[2] = tested on: blackgrass; test: Test B pre/postemergence blackgrass; type: in vivo, Alopecurus myosuroides
In short: as §1

[3] = tested on: sugar beet; test: Test B pre/postemergence sugar beet; type: in vivo, Beta vulgaris
In short: as §1

[4] = tested on: bamyardgrass; test: Test B flood test barnyardgrass; type: in vivo, Echinochloa crus-galli
In short: (§2)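 Read-out is a visual response score from 0 (no effect) to 10 (complete control), assigned by comparison with untreated controls. Treatment was applied at the 2-leaf stage, and plants stayed in the greenhouse for twelve to sixteen days before scoring.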

[5] = tested on: giant foxtail; test: Test B pre/postemergence giant foxtail; type: in vivo, Setaria faberii
In short: as §1

[6] = tested on: smallflower flatsedge; test: Test B flood test smallflower flatsedge; type: in vivo, Cyperus difformis
In short: as §2

[7] = tested on: crabgrass; test: Test B pre/postemergence crabgrass; type: in vivo, Digitaria sanguinalis
In short: as §1

[8] = tested on: wheat; test: Test B pre/postemergence wheat; type: in vivo, Triticum aestivum
In short: as §1

[9] = tested on: soybean; test: Test B pre/postemergence soybean; type: in vivo, Glycine max
In short: as §1

[10] = tested on: pigweed; test: Test B pre/postemergence pigweed; type: in vivo, Amaranthus retroflexus
In short: as §1

[11] = tested on: duck salad; test: Test B flood test duck salad; type: in vivo, Heteranthera limosa
In short: as §2

[12] = tested on: corn; test: Test B pre/postemergence corn; type: in vivo, Zea mays
In short: as §1

[13] = tested on: surinam grass; test: Test B pre/postemergence surinam grass; type: in vivo, Brachiaria decumbens
In short: as §1

[14] = tested on: purple nutsedge; test: Test B pre/postemergence purple nutsedge; type: in vivo, Cyperus rotundus
In short: as §1

[15] = tested on: rice; test: Test B flood test rice; type: in vivo, Oryza sativa
In short: as §2

[16] = tested on: cocklebur; test: Test B pre/postemergence cocklebur; type: in vivo, Xanthium strumarium
In short: as §1

[17] = Postemergence, Rate 62 g/ha, scale 0 to 10, 0 is no effect, 10 is complete control
[18] = Postemergence, Rate 250 g/ha, scale 0 to 10, 0 no effect, 10 complete control
[19] = Preemergence, Rate 62 g/ha, scale 0 to 10 (0 no effect, 10 complete control)
[20] = Preemergence, Rate 125 g/ha, scale 0 to 10 (0 no effect, 10 complete control)
[21] = Preemergence, Rate 250 g/ha, scale of 0 to 10 where 0 is no effect and 10 is complete control
[22] = Preemergence, Rate 500 g/ha, scale 0 (no effect) to 10 (complete control)
[23] = Rate 125 g/ha, Postemergence, scale 0 to 10, 0 no effect, 10 complete control
[24] = Rate 500 g/ha, Postemergence, scale 0 to 10, 0 no effect, 10 complete control
[25] = Rate 125 g/ha, Postemergence section (flood test species), scale 0 to 10, 0 no effect, 10 complete control
[26] = Rate 250 g/ha, headed Pre-emergence (flood test species), scale 0 to 10 (0 no effect, 10 complete control)
[27] = Rate 500 g/ha, headed Pre-emergence (flood test species), scale 0 to 10 (0 no effect, 10 complete control)
[28] = Rate 500 g/ha, listed under Postemergence (flood test species), scale 0 to 10, 0 no effect, 10 complete control
[29] = Rate 1000 g/ha, Pre-emergence (as headed), scale 0 to 10
[30] = flood test, listed under Postemergence, Rate 250 g/ha, scale 0 to 10, 0 no effect, 10 complete control
[31] = Rate 2000 g/ha, Pre-emergence (as headed), scale 0 to 10

CC(C)N(C(=O)n1oc(=O)n(Cc2cccs2)c1=O)c1ccc(F)cc1F [Compound 86]
Rape plant response rating [1, 17]: 0
Rape plant response rating [1, 18]: 2
Rape plant response rating [1, 19]: 0
Plant response rating, Rape [1, 20]: 0
Plant response rating, Rape [1, 21]: 0
Rape plant response rating [1, 22]: 4
Rape plant response rating [1, 23]: 0
Rape plant response rating [1, 24]: 4
Blackgrass plant response rating [2, 17]: 0
Blackgrass plant response rating [2, 18]: 1
Blackgrass plant response rating [2, 19]: 2
Plant response rating, Blackgrass [2, 20]: 3
Plant response rating, Blackgrass [2, 21]: 5
Blackgrass plant response rating [2, 22]: 8
Blackgrass plant response rating [2, 23]: 0
Blackgrass plant response rating [2, 24]: 3
Sugarbeets plant response rating [3, 17]: 0
Sugarbeets plant response rating [3, 18]: 3
Sugarbeets plant response rating [3, 19]: 0
Plant response rating, Sugarbeets [3, 20]: 0
Plant response rating, Sugarbeets [3, 21]: 3
Sugarbeets plant response rating [3, 22]: 3
Sugarbeets plant response rating [3, 23]: 3
Sugarbeets plant response rating [3, 24]: 6
Barnyardgrass plant response rating [4, 17]: 0
Barnyardgrass plant response rating [4, 25]: 0
Barnyardgrass plant response rating [4, 26]: 0
Plant response rating, Barnyardgrass [4, 27]: 0
Barnyardgrass plant response rating [4, 28]: 0
Barnyardgrass plant response rating [4, 29]: 0
Barnyardgrass plant response rating ([4]; Rate 2000 g/ha, Pre-emergence (as headed), scale 0 to 10, 0 no effect, 10 complete control): 0
Barnyardgrass plant response rating [4, 30]: 0
Giant foxtail plant response rating [5, 17]: 0
Giant foxtail plant response rating [5, 18]: 3
Giant foxtail plant response rating [5, 19]: 8
Plant response rating, Giant foxtail [5, 20]: 9
Plant response rating, Giant foxtail [5, 21]: 10
Giant foxtail plant response rating [5, 22]: 10
Giant foxtail plant response rating [5, 23]: 2
Giant foxtail plant response rating [5, 24]: 5
S. Flatsedge plant response rating [6, 17]: 0
S. Flatsedge plant response rating ([6]; Pre-emergence, Rate 1000 g/ha, scale 0 to 10 (0 no effect, 10 complete control)): 0
S. Flatsedge plant response rating [6, 25]: 0
S. Flatsedge plant response rating [6, 26]: 0
Plant response rating, S. Flatsedge [6, 27]: 0
S. Flatsedge plant response rating [6, 28]: 0
S. Flatsedge plant response rating [6, 31]: 0
S. Flatsedge plant response rating [6, 30]: 0
Crabgrass plant response rating [7, 17]: 2
Crabgrass plant response rating [7, 18]: 5
Crabgrass plant response rating [7, 19]: 5
Plant response rating, Crabgrass [7, 20]: 8
Plant response rating, Crabgrass [7, 21]: 10
Crabgrass plant response rating [7, 22]: 10
Crabgrass plant response rating [7, 23]: 3
Crabgrass plant response rating [7, 24]: 9
Wheat plant response rating [8, 17]: 0
Wheat plant response rating [8, 18]: 0
Wheat plant response rating [8, 19]: 0
Plant response rating, Wheat [8, 20]: 0
Plant response rating, Wheat [8, 21]: 0
Wheat plant response rating [8, 22]: 0
Wheat plant response rating [8, 23]: 0
Wheat plant response rating [8, 24]: 0
Soybean plant response rating [9, 17]: 2
Soybean plant response rating [9, 18]: 2
Soybean plant response rating [9, 19]: 0
Plant response rating, Soybean [9, 20]: 0
Plant response rating, Soybean [9, 21]: 0
Soybean plant response rating [9, 22]: 0
Soybean plant response rating [9, 23]: 2
Soybean plant response rating [9, 24]: 3
Redroot pigweed plant response rating [10, 17]: 0
Redroot pigweed plant response rating [10, 18]: 5
Redroot pigweed plant response rating [10, 19]: 2
Plant response rating, Redroot pigweed [10, 20]: 4
Plant response rating, Redroot pigweed [10, 21]: 8
Redroot pigweed plant response rating [10, 22]: 8
Redroot pigweed plant response rating [10, 23]: 0
Redroot pigweed plant response rating [10, 24]: 7
Ducksalad plant response rating [11, 17]: 0
Ducksalad plant response rating [11, 25]: 0
Ducksalad plant response rating [11, 26]: 0
Plant response rating, Ducksalad [11, 27]: 0
Ducksalad plant response rating [11, 28]: 0
Ducksalad plant response rating [11, 29]: 0
Ducksalad plant response rating [11, 31]: 0
Ducksalad plant response rating [11, 30]: 0
Corn plant response rating [12, 17]: 0
Corn plant response rating [12, 18]: 00
Corn plant response rating [12, 19]: 0
Plant response rating, Corn [12, 20]: 0
Plant response rating, Corn [12, 21]: 0
Corn plant response rating [12, 22]: 0
Corn plant response rating [12, 23]: 0
Corn plant response rating [12, 24]: 0
B. signalgrass plant response rating [13, 17]: 0
B. signalgrass plant response rating [13, 18]: 0
B. signalgrass plant response rating [13, 19]: 0
Plant response rating, B. signalgrass [13, 20]: 2
Plant response rating, B. signalgrass [13, 21]: 4
B. signalgrass plant response rating [13, 22]: 7
B. signalgrass plant response rating [13, 23]: 0
B. signalgrass plant response rating ([13]; Rate 500 g/ha, Postemergence, scale of 0 to 10 where 0 is no effect and 10 is complete control): 0
Nutsedge plant response rating [14, 17]: 0
Nutsedge plant response rating [14, 18]: 0
Nutsedge plant response rating [14, 19]: 0
Plant response rating, Nutsedge [14, 20]: 0
Plant response rating, Nutsedge [14, 21]: 0
Nutsedge plant response rating [14, 22]: 0
Nutsedge plant response rating [14, 23]: 0
Nutsedge plant response rating [14, 24]: 0
Rice plant response rating [15, 17]: 0
Rice plant response rating [15, 25]: 0
Rice plant response rating [15, 26]: 0
Plant response rating, Rice [15, 27]: 0
Rice plant response rating [15, 28]: 0
Rice plant response rating [15, 29]: 0
Rice plant response rating [15, 31]: 8
Rice plant response rating [15, 30]: 0
Cocklebur plant response rating [16, 17]: 0
Cocklebur plant response rating [16, 18]: 2
Cocklebur plant response rating [16, 19]: 0
Plant response rating, Cocklebur [16, 20]: 0
Plant response rating, Cocklebur [16, 21]: 0
Cocklebur plant response rating [16, 22]: 0
Cocklebur plant response rating [16, 23]: 1
Cocklebur plant response rating [16, 24]: 2
